Results from BindingDB's records for doi:10.1016/0024-3205(82)90293-4 (University of Arizona, 1982).
Values joined by “and” are separate entries in the source; they are usually repeats but may differ in a detail not shown here. Identical values can stand only once.

Each compound was assayed against Voltage-dependent L-type calcium channel subunit alpha-1C (Rattus norvegicus, UniProt P22002).
Sequence of Voltage-dependent L-type calcium channel subunit alpha-1C (P22002 whole entry): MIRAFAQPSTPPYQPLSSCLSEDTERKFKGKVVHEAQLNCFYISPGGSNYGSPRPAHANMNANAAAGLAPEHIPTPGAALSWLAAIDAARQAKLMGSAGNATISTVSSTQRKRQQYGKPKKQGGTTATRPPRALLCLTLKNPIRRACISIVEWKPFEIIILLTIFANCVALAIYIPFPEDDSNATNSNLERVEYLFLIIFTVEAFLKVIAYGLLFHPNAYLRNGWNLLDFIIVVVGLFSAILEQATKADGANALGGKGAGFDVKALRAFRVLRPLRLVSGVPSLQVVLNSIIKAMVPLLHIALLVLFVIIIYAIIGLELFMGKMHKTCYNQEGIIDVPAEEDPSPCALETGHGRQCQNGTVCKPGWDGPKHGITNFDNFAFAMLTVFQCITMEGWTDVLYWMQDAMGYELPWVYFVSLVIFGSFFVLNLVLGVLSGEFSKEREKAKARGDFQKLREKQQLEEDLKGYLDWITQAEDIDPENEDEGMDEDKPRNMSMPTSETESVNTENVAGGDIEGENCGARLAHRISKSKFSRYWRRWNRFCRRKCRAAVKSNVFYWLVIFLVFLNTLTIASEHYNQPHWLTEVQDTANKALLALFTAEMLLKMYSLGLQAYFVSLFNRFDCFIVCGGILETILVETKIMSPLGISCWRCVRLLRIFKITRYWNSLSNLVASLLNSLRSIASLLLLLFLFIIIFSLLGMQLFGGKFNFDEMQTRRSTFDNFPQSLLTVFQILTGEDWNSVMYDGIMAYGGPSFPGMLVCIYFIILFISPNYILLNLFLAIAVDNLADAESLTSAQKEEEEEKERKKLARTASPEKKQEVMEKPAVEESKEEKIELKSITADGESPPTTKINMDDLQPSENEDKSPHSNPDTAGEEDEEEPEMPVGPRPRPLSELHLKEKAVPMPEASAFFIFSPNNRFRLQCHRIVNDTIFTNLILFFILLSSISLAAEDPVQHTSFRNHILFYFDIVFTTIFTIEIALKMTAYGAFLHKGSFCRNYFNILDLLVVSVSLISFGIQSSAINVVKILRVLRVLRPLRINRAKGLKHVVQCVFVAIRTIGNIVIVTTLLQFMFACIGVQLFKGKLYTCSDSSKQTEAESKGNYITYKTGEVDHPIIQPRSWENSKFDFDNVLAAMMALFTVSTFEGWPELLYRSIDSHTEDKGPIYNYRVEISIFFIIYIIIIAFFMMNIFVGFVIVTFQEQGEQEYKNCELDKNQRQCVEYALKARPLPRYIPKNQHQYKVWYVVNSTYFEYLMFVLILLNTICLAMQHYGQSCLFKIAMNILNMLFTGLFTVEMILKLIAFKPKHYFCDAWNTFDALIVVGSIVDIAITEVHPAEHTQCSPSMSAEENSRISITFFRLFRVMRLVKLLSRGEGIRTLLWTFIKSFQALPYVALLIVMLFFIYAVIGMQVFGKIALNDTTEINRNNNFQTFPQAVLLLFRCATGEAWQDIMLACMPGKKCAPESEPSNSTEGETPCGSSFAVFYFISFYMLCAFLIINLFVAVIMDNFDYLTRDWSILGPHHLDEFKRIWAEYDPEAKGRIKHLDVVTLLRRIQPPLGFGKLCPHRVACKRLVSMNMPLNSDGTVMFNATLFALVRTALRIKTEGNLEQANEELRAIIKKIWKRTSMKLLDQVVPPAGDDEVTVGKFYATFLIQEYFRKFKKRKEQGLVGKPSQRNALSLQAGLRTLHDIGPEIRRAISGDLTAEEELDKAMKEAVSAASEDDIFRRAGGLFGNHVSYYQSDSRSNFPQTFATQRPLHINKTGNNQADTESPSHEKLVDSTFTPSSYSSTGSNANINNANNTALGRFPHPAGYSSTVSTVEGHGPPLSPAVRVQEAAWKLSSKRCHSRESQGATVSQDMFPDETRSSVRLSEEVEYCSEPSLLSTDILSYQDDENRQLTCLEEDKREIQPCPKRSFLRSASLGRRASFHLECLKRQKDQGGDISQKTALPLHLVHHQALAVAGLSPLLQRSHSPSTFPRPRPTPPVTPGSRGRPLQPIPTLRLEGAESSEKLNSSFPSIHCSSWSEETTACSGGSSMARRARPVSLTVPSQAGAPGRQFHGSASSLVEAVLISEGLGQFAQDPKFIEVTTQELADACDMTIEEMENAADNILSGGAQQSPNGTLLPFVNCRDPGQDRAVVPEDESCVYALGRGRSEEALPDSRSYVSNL

| Ki | Compound |
| --- | --- |
| 0.33 nM and 0.5 nM | COC(=O)C1C(C)=NC(C)=C(C(=O)OCC(C)C)C1c1ccccc1[N+](=O)[O-] (stereo not drawn) [CAS_4499] |
| 42 nM | COc1ccc(CCN(C)CCCC(C#N)(c2cc(OC)c(OC)c(OC)c2)C(C)C)cc1OC (stereo not drawn) [GALLOPAMIL] |
| 0.56 nM and 0.79 nM | COCCOC(=O)C1=C(C)N=C(C)C(C(=O)OC(C)C)C1c1cccc([N+](=O)[O-])c1 (stereo not drawn) [Nimotop] |
